From patent US12668585B2, “Substituted pyrimidinyl-pyrazoles as CDK2 inhibitors” (BLUEPRINT MEDICINES CORPORATION, priority 2021, dated 2026)
pIC50: −log10 of the molar value.

What was measured:
CDK2/Cyclin E = biological target: T1, CDK2/Cyclin E (Homo sapiens, UniProt P24941); experiment: Biochemical CDK inhibition assay (Caliper mobility shift), CDK2/Cyclin E; details: read-out: CDK2/cyclin E1 IC50
T1 construct: purchased Eurofins 14-475
Protocol: (§1) Inhibitory effects of the compounds of the disclosure were measured in biochemical assays that measure the enzymatic phosphorylation activity of CDK enzyme in complex of Cyclin proteins phosphorylates 7.5 micromolar fluorescently labelled peptide substrate, 5-FAM-QSPKKG-CONH2, (FL-Peptide 18, Perkin Elmer, 760362) in the presence of adenosine-5′-triphosphate (ATP) and varying concentrations of the test compound in 100 mM 2-[4-(2-hydroxyethyl)piperazin-1-yl] ethanesulfonic acid (HEPES), pH 7.5, 10 mM MgCl2, 0.015% Brij-35, 1 mM dithiothreitol (DTT), 1.0% dimehylsulfoxide (DMSO). […] Reactions proceeded until between 10% to 20% total peptides were phosphorylated at room temperature (25° C.) and were terminated with 35 mM 2,2′,2″,2′″-(ethane-1,2-diyldinitrilo)tetraacetic acid (EDTA). Product was detected using the Caliper mobility shift detection method where the phosphorylated peptide (product) and substrate were electrophoretically separated and measured. Percent activity was plotted against log concentration of compound and points to generate an apparent IC50. The following CDK enzymes in complex with different cyclin proteins were used in these assays: • CDK1/Cyclin B1, GST-tag (BPS, 40454), 1.5 nM used in the assay • CDK2/Cyclin E (Eurofins, 14-475), 1.25 nM used in the assays
(§2) For inhibitory activity against CDK2/Cyclin E mutant, the following designations are used: ≤10 nM=A; >10-20 nM=B; >20-30 nM=C; >30-100 nM=D and >100=E. For inhibition CDK1/Cyclin B1, GST-tag: ≥500 nM=A; <100-500 nM=B; <100 nM=C.

CDK1/Cyclin B1, GST-tag = biological target: T2, CDK1/Cyclin B1, GST-tag (Homo sapiens, UniProt P06493); experiment: Biochemical CDK inhibition assay (Caliper mobility shift), CDK1/Cyclin B1
T2 construct: GST; purchased BPS 40454
Protocol: as §1, §2

T2 sequence (P06493 whole entry): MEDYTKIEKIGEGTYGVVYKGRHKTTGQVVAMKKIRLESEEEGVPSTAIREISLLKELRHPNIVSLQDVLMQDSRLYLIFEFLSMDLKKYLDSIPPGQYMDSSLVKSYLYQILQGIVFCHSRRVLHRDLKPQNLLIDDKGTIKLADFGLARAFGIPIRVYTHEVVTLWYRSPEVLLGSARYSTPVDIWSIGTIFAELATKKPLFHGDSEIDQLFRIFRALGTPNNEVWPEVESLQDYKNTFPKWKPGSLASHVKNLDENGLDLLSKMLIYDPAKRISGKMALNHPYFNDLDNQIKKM
T2 sequence (P14635 whole entry partner): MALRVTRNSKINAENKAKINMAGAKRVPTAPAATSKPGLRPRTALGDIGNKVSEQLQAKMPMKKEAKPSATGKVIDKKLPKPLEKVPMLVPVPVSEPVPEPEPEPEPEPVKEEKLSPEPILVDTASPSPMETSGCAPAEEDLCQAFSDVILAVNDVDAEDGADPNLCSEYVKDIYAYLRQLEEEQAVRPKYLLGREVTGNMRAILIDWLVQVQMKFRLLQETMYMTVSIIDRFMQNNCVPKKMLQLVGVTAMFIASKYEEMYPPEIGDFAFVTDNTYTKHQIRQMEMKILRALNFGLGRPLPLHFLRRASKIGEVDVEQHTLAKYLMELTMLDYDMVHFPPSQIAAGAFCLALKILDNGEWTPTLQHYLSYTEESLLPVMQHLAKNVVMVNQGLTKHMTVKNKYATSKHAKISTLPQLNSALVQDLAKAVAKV

SMILES	pIC50 (CDK2/Cyclin E)	pIC50 (CDK1/Cyclin B1, GST-tag)
COc1cc(S(N)(=O)=O)ccc1Nc1ncc(F)c(-c2cnn(CC(C)(C)O)c2)n1 [Example 46, 4-((5-fluoro-4-(1-(2-hydroxy-2-methylpropyl)-1H-pyrazol-4-yl)pyrimidin-2-yl)amino)-3-methoxybenzenesulfonamide]	7.00 to 7.52	≤ 6.30
NS(=O)(=O)c1ccc(Nc2ncc(C(F)(F)F)c(-c3cnn(C4CCOCC4)c3)n2)c(F)c1 [Example 47, 3-fluoro-4-((4-(1-(tetrahydro-2H-pyran-4-yl)-1H-pyrazol-4-yl)-5-(trifluoromethyl)pyrimidin-2-yl)amino)benzenesulfonamide]	≥ 8.00	≤ 6.30
